Laboratory results taken from article PMC3733449 (Bioorganic & medicinal chemistry, 2013).
Like-named read-outs stand apart in the source and are kept apart here. Marks after values point to notes of the source that are not given here.

Columns and labels:
[1] = target: human D3 dopamine receptor (Homo sapiens, UniProt P35462); assay: Competitive radioligand binding, D3 dopamine receptor; conditions: D2:D3 Ki value ratio
[2] = target: T1, human D3 receptors expressed in stably transfected HEK 293 cells (Homo sapiens, UniProt P35462); assay: Forskolin-dependent whole cell adenylyl cyclase inhibition assay, D3; type: cell-based; conditions: result in words
[3] = published data; ref Leopoldo et al, 2002. [24]; cited from earlier work
[4] = target: T1, human D3 receptors expressed in stably transfected HEK 293 cells; conditions: result in words, previously reported; cited from earlier work

T1 sequence (P35462 whole entry): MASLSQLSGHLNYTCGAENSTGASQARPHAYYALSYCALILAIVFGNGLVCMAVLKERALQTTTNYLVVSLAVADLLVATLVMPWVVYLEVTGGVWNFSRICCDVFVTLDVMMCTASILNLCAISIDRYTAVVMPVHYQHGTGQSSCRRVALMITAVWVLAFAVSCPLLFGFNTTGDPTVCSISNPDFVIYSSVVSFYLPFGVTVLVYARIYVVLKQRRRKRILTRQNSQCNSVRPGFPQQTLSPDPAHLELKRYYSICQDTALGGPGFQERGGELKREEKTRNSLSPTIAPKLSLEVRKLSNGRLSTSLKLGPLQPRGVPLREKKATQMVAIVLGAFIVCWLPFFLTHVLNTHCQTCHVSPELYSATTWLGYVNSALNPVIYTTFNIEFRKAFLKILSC
Sequence of human D3 dopamine receptor (P35462 whole entry): as above

## COc1ccccc1N1CCCN(CCCCNC(=O)c2ccc(-c3ccsc3)cc2)CC1 [Compound 11a, N-(4-(4-(2-Methoxyphenyl)-1,4-diazepan-1-yl)butyl)-4-(thiophen-3-yl)benzamide]
[1]
  D2/D3 (Ki ratio): > 100

## COc1ccccc1N1CCCN(CCCCNC(=O)c2ccc(CCF)cc2)CC1 [Compound 11e, 4-(2-Fluoroethyl)-N-(4-(4-(2-methoxyphenyl)-1,4-diazepan-1-yl)butyl)benzamide]
[2]
  efficacy class at D3 receptors: strong partial agonist

## O=C(NCCCCN1CCN(c2cccc(Cl)c2Cl)CC1)c1ccc2c(c1)Cc1ccccc1-2 [NGB-2904]
[3]
  Log P: 6.94 ^h

## COc1ccccc1N1CCN(CCCCNC(=O)c2ccc(CCF)cc2)CC1 [WC-44]
[4]
  efficacy class at D3 receptors: full agonist
